Legend:
[1] = test system: Echinochloa oryzoides (Ard.) Fritsch.; test: Preemergence weed control under flooded paddy conditions, ECHORC (Watergrass (Calif.)); assay type: in vivo; details: flooded paddy, rated three to four weeks after treatment; for ECHORC herbicidal effect rating: preemergence; for herbicidal effect rating, ECHORC: preemergence weeds; on herbicidal effect rating, ECHORC: meaning of each grade not given here
[2] = test system: Cyperus serotinus, Rottb.; test: Preemergence weed control under flooded paddy conditions, CYPSE (Flatsedge); assay type: in vivo; details: rated three to four weeks after treatment; for CYPSE herbicidal effect rating: preemergence; for herbicidal effect rating, CYPSE: preemergence weeds; on herbicidal effect rating, CYPSE: meaning of each grade not given here
Cyperus iria = test: Preemergence weed control under flooded paddy conditions, CYPIR (Rice Flatsedge); assay type: in vivo; details: flooded paddy, rated three to four weeks after treatment; for CYPIR herbicidal effect rating: preemergence; for herbicidal effect rating, CYPIR: preemergence weeds; on herbicidal effect rating, CYPIR: meaning of each grade not given here
Sagittaria pygmaea, L. = test: Preemergence weed control under flooded paddy conditions, SAGPY (Arrowhead (Pygmaea)); assay type: in vivo; details: flooded paddy, rated three to four weeks after treatment; for SAGPY herbicidal effect rating: preemergence; for herbicidal effect rating, SAGPY: preemergence weeds; on herbicidal effect rating, SAGPY: meaning of each grade not given here
[3] = test system: Monochoria vaginalis, Presl.; test: Preemergence weed control under flooded paddy conditions, MOOVA (Monochoria); assay type: in vivo; details: flooded paddy, rated three to four weeks after treatment; for MOOVA herbicidal effect rating: preemergence; for herbicidal effect rating, MOOVA: preemergence weeds; on herbicidal effect rating, MOOVA: meaning of each grade not given here
[4] = test system: Oryza sativa, (L.) Tebonnet; test: Rice tolerance to post-transplant applications under flooded paddy conditions (Example 187), ORYSAT (Rice, Tebonnet); details: rated three to four weeks after treatment

For `Cn1c(C(F)(F)F)cc(=O)n(-c2ccc3snc(/C=N/O)c3c2)c1=O` [Example 278, 1,2-Benzisothiazole-3-carboxaldehyde, 5-[3,6-dihydro-3-methyl-2,6-dioxo-4-(trifluoromethyl)-1(2H)-pyrimidinyl]-, 3-oxime, (E)-], the “ECHORC herbicidal effect rating” value ([1]; Rate 0.0320 kg/ha) was 0.0, the “ECHORC herbicidal effect rating” value ([1]; Rate 0.0620 kg/ha) was 6.1 and the “ECHORC herbicidal effect rating” value ([1]; Rate 0.1250 kg/ha) was 7.4. The “ECHORC herbicidal effect rating” value ([1]; Rate 0.2500 kg/ha) was 8.0, the “ECHORC herbicidal effect rating” value ([1]; Rate 0.5000 kg/ha) was 9.0 and the “CYPSE herbicidal effect rating” value ([2]; Rate 0.0320 kg/ha) was 0.0. The “CYPSE herbicidal effect rating” value ([2]; Rate 0.0620 kg/ha) was 0.0, the “CYPSE herbicidal effect rating” value ([2]; Rate 0.1250 kg/ha) was 2.0 and the “CYPSE herbicidal effect rating” value ([2]; Rate 0.2500 kg/ha) was 4.0. For the same compound, the “CYPSE herbicidal effect rating” value ([2]; Rate 0.5000 kg/ha) was 9.0, the “CYPIR herbicidal effect rating” value (Cyperus iria; Rate 0.0320 kg/ha) was 0.0 and the “CYPIR herbicidal effect rating” value (Cyperus iria; Rate 0.0620 kg/ha) was 2.0. For the same compound, the “CYPIR herbicidal effect rating” value (Cyperus iria; Rate 0.1250 kg/ha) was 7.0, the “CYPIR herbicidal effect rating” value (Cyperus iria; Rate 0.2500 kg/ha) was 9.0 and the “CYPIR herbicidal effect rating” value (Cyperus iria; Rate 0.5000 kg/ha) was 9.0. For the same compound, the “SAGPY herbicidal effect rating” value (Sagittaria pygmaea, L.; Rate 0.0320 kg/ha) was 0.0, the “SAGPY herbicidal effect rating” value (Sagittaria pygmaea, L.; Rate 0.0620 kg/ha) was 0.0 and the “SAGPY herbicidal effect rating” value (Sagittaria pygmaea, L.; Rate 0.1250 kg/ha) was 0.0. For the same compound, the “SAGPY herbicidal effect rating” value (Sagittaria pygmaea, L.; Rate 0.2500 kg/ha) was 2.0, the “SAGPY herbicidal effect rating” value (Sagittaria pygmaea, L.; Rate 0.5000 kg/ha) was 9.0 and the “MOOVA herbicidal effect rating” value ([3]; Rate 0.0320 kg/ha) was 6.0. For the same compound, the “MOOVA herbicidal effect rating” value ([3]; Rate 0.0620 kg/ha) was 8.0, the “MOOVA herbicidal effect rating” value ([3]; Rate 0.1250 kg/ha) was 9.0 and the “MOOVA herbicidal effect rating” value ([3]; Rate 0.2500 kg/ha) was 9.0. The “MOOVA herbicidal effect rating” value ([3]; Rate 0.5000 kg/ha) was 9.0, the “ORYSAT herbicidal effect rating” value ([4]; Rate 0.0320 kg/ha) was 2.0 and the “ORYSAT herbicidal effect rating” value ([4]; Rate 0.0620 kg/ha) was 3.0. The “ORYSAT herbicidal effect rating” value ([4]; Rate 0.1250 kg/ha) was 4.0, the “ORYSAT herbicidal effect rating” value ([4]; Rate 0.2500 kg/ha) was 7.0 and the “ORYSAT herbicidal effect rating” value ([4]; Rate 0.5000 kg/ha) was 8.0.
With `Cn1c(C(F)(F)F)cc(=O)n(-c2ccc3snc(COC(=O)c4ccccc4)c3c2)c1=O` [Example 143, 3-[3-(Hydroxymethyl)-1,2-benzisothiazol-5-yl]-1-methyl-6-(trifluoromethyl)-2,4(1H,3H)-pyrimidinedione, benzoate (ester)] the “herbicidal effect rating, ECHORC” value ([1]; 0.0313 kg/ha) was 0.0, the “herbicidal effect rating, ECHORC” value ([1]; 0.0625 kg/ha) was 0.0 and the “herbicidal effect rating, ECHORC” value ([1]; 0.1250 kg/ha) was 2.0. For the same compound, the “herbicidal effect rating, ECHORC” value ([1]; 0.2500 kg/ha) was 6.0, the “herbicidal effect rating, CYPSE” value ([2]; 0.0313 kg/ha) was 0.0 and the “herbicidal effect rating, CYPSE” value ([2]; 0.0625 kg/ha) was 0.0. For the same compound, the “herbicidal effect rating, CYPSE” value ([2]; 0.1250 kg/ha) was 0.0, the “herbicidal effect rating, CYPSE” value ([2]; 0.2500 kg/ha) was 0.0 and the “herbicidal effect rating, CYPIR” value (Cyperus iria; 0.0313 kg/ha) was 0.0. The “herbicidal effect rating, CYPIR” value (Cyperus iria; 0.0625 kg/ha) was 0.0, the “herbicidal effect rating, CYPIR” value (Cyperus iria; 0.1250 kg/ha) was 0.0 and the “herbicidal effect rating, CYPIR” value (Cyperus iria; 0.2500 kg/ha) was 0.0. The “herbicidal effect rating, SAGPY” value (Sagittaria pygmaea, L.; 0.0313 kg/ha) was 0.0, the “herbicidal effect rating, SAGPY” value (Sagittaria pygmaea, L.; 0.0625 kg/ha) was 0.0 and the “herbicidal effect rating, SAGPY” value (Sagittaria pygmaea, L.; 0.1250 kg/ha) was 0.0. For the same compound, the “herbicidal effect rating, SAGPY” value (Sagittaria pygmaea, L.; 0.2500 kg/ha) was 0.0, the “herbicidal effect rating, MOOVA” value ([3]; 0.0313 kg/ha) was 9.0 and the “herbicidal effect rating, MOOVA” value ([3]; 0.0625 kg/ha) was 9.0. For the same compound, the “herbicidal effect rating, MOOVA” value ([3]; 0.1250 kg/ha) was 9.0, the “herbicidal effect rating, MOOVA” value ([3]; 0.2500 kg/ha) was 9.0 and the “herbicidal effect rating, ORYSAT (rice tolerance)” value (shortened to “herbicidal effect rating, ORYSAT”) ([4]; 0.0313 kg/ha) was 3.0. For the same compound, the “herbicidal effect rating, ORYSAT” value ([4]; 0.0625 kg/ha) was 3.0, the “herbicidal effect rating, ORYSAT” value ([4]; 0.1250 kg/ha) was 3.0 and the “herbicidal effect rating, ORYSAT” value ([4]; 0.2500 kg/ha) was 4.0.

Reference: patent publication EP0908457B1, “3-(1,2-benzisothiazol- and isoxazol-5-Y1)-2,4(1H,3H)-pyrimidinedione or thione and 3-(1,2-benzisothiazol- and isoxazol-5-y1)-4(3H)-pyrimidinone or thione herbicidal agents” (BASF AKTIENGESELLSCHAFT, priority 1997, dated 1999)
